Test results taken from paper PMC7402526, “An in vitro quantitative systems pharmacology approach for deconvolving mechanisms of drug-induced, multilineage cytopenias” (PLoS Computational Biology, 2020).

Columns and labels:
[1] = system: granulocyte-macrophage progenitor (GMPs); assay: MLTA, GMPs: concentration-response and QSP model fit; format: cell-based, human; details: Homo sapiens, 144 h, 6 days, normalized to vehicle control, read-out: GMPs normalized cell count
Description: (§1) A custom optimized cytokine cocktail was developed using commercially available cytokines (Peprotech, New Jersey) to facilitate simultaneous multi-lineage differentiation and self-renewal of freeze-thawed primary human bone marrow-derived CD34+ cells in SFEM II media (cells and media from StemCell Technologies, Vancouver). Cultures were carried out in ultra-low attachment 96-well plates (Corning, New York) with test article added on day 0 and cultured at 37°C, 85% relative humidity, and 5% CO2 for six days before interrogating drug impact via 17-parameter flow cytometry.
(§2) The flow cytometry panel used to define hematopoietic subsets was composed of CD34-PECy7, CD90-PECY5, CD38-AF488, CD371-PE, CD45Ra-BV421, CD14-BV605, CD42b-AF647, CD10-PEDazzle594, CD235a-PerCPCy5.5 (BioLegend, California), CD15-BUV395, CD41a-APCH7, CD71-BV786 (BD Biosciences, California), and DAPI for dead cell exclusion (ThermoFisher, California). In short, Day 6 cells were harvested, FcR-blocked (FcR binding inhibitor, ThermoFisher), surface-stained, then analyzed in a buffer containing TruCount Control Beads using a BD LSR Fortessa SORP fitted with a high-throughput sampler (BD Biosciences, California). Data was analyzed in Diva 6.0.2 and exported to CSV where after all cell data was transformed to cell per mL then normalized on a per-donor basis to untreated control wells to determine drug impact.
(§3) Donor material was collected and cultured as described above. The number of replicate donor samples per drug ranged from 2–7 and varied per drug (S1 Table). Drug treatment was added at time 0 and cells were maintained in culture for 6 days. Concentrations tested for each drug compound are contained in S1 Table. Concentrations were selected to span a range that is clinically useful. Following treatment, cell populations were measured using flow cytometry. We extracted cell counts from flow cytometry data, normalized to bead counts, and corrected for well volume.
(§4) Each well was normalized to the average of six vehicle control wells. For drugs that were tested across multiple runs of the assay, vehicle-normalized donor data were pooled, and we used the average of these pooled data for further modeling. Normalized data used as model inputs are included in S1 Table.
(§5) We implemented drug effects using an Emax model for the drug’s effect on each cell type. The 13 maximum effect parameters (EmaxT,C) are unitless and can vary between 0 and 2 and where a subscript, C, represents one of the previously described 13 cell types. We adapted a traditional Emax model using the equations below. We interpreted EmaxT values less than or equal to one as anti-proliferative, and EmaxT values greater than one as indicating a cell-killing mechanism in addition to anti-proliferation. The relationships for these effects are included in the model using the following equations. Eq 2 describes the drug anti-proliferative effect in the net proliferation rate for a given cell type. Eq 3 describes the cell-killing EmaxCK effect.
(§6) Towards the estimation of mechanistic parameters, we considered different formulations: (a) weighting the objective value to prioritize fitting dead cells and (b) using regularization methodology to encourage a parsimonious solution. We assessed the contributions of these formulations using mean-squared error and goodness of fit plots for drugs with known mechanisms. […] Further, we used L1 regularization to penalize parameters […] to help identify a parsimonious set of parameters to explain drug effects.

granulocytes (Gran-lin) = assay: MLTA, Gran: concentration-response and QSP model fit; format: cell-based, human
Description: as §1, §2, §3, §4, §5, §6

[2] = system: monocyte progenitors (monocyte prog); assay: MLTA, MonoP: concentration-response and QSP model fit; format: cell-based, human
Description: as §1, §2, §3, §4, §5, §6

monocytes (monocyte-lin) = assay: MLTA, Mono: concentration-response and QSP model fit; format: cell-based, human; details: Homo sapiens, Monocyte, 144 h
Description: as §1, §2, §3, §4, §5, §6

[3] = system: lymphocyte progenitors (LymP); assay: MLTA, LymP: concentration-response and QSP model fit; format: cell-based, human; details: Homo sapiens, Lymphocyte, 144 h
Description: as §1, §2, §3, §4, §5, §6

B cells (B-lin) = assay: MLTA, B-lin: concentration-response and QSP model fit; format: cell-based, human; details: Homo sapiens, B-cell, 144 h
Description: as §1, §2, §3, §4, §5, §6

[4] = system: total viable cells (totalViableCells); assay: MLTA, total live cells concentration-response; format: cell-based; details: Homo sapiens, 144 h, 6 days, normalized to vehicle control, read-out: total_live normalized cell count
Description: as §1, §2, §3, §4

[5] = system: total dead cells (totalDeadCells); assay: MLTA, total dead cells concentration-response; format: cell-based; details: Homo sapiens, 144 h, 6 days, normalized to vehicle control, read-out: total_dead normalized cell count
Description: as §1, §2, §3, §4

[6] = cell-killing component, max(0, EmaxT-1)
[7] = QSP model fit of 6-day MLTA data

Q: Which results are given for CC(=O)O[C@@]12CO[C@@H]1C[C@H](O)[C@@]1(C)C(=O)[C@H](O)C3=C(C)[C@@H](OC(=O)[C@H](O)[C@@H](NC(=O)OC(C)(C)C)c4ccccc4)C[C@@](O)([C@@H](OC(=O)c4ccccc4)[C@H]21)C3(C)C [docetaxel]?
A: activity at 0.0002 µM ([1]; dose 0.2 nM): 103%; activity at 0.001 µM ([1]; dose 1 nM): 126%; activity at 0.005 µM ([1]; dose 5 nM): 15.2%; activity at 0.025 µM ([1]; dose 25 nM): 0.367%; activity at 0.1 µM ([1]; dose 100 nM): 0.162%; activity at 0.5 µM ([1]; dose 500 nM): 0.693%; activity at 2.5 µM ([1]; dose 2500 nM): 0.207%; EC50 (granulocytes (Gran-lin); Homo sapiens, 144 h, QSP model fit of 6-day MLTA data): 7.91 nM; activity at 0.0002 µM (granulocytes (Gran-lin); Homo sapiens, 144 h, dose 0.2 nM, 6 days, normalized to vehicle control, read-out: Gran normalized cell count): 99.7%; activity at 0.001 µM (granulocytes (Gran-lin); Homo sapiens, 144 h, dose 1 nM, 6 days, normalized to vehicle control, read-out: Gran normalized cell count): 112%; activity at 0.005 µM (granulocytes (Gran-lin); Homo sapiens, 144 h, dose 5 nM, 6 days, normalized to vehicle control, read-out: Gran normalized cell count): 2.09%; activity at 0.025 µM (granulocytes (Gran-lin); Homo sapiens, 144 h, dose 25 nM, 6 days, normalized to vehicle control, read-out: Gran normalized cell count): 0.0343%; activity at 0.1 µM (granulocytes (Gran-lin); Homo sapiens, 144 h, dose 100 nM, 6 days, normalized to vehicle control, read-out: Gran normalized cell count): 0.0437%; activity at 0.5 µM (granulocytes (Gran-lin); Homo sapiens, 144 h, dose 500 nM, 6 days, normalized to vehicle control, read-out: Gran normalized cell count): 0.0563%; activity at 2.5 µM (granulocytes (Gran-lin); Homo sapiens, 144 h, dose 2500 nM, 6 days, normalized to vehicle control, read-out: Gran normalized cell count): 0.0425%; Emax (granulocytes (Gran-lin); Homo sapiens, 144 h, parameter from QSP model fitting, read-out: Emax_drug_Gran): 276%; EmaxCK,Gran (granulocytes (Gran-lin); [6]): 1.762 day⁻¹; EC50 ([2]; Homo sapiens, Monocyte, 144 h, QSP model fit of 6-day MLTA data, read-out: EC50MonoP): 7.88 nM; activity at 0.0002 µM ([2]; Homo sapiens, Monocyte, 144 h, dose 0.2 nM, 6 days, normalized to vehicle control, read-out: MonoPs normalized cell count): 110%; activity at 0.001 µM ([2]; Homo sapiens, Monocyte, 144 h, dose 1 nM, 6 days, normalized to vehicle control, read-out: MonoPs normalized cell count): 107%; activity at 0.005 µM ([2]; Homo sapiens, Monocyte, 144 h, dose 5 nM, 6 days, normalized to vehicle control, read-out: MonoPs normalized cell count): 7.72%; activity at 0.025 µM ([2]; Homo sapiens, Monocyte, 144 h, dose 25 nM, 6 days, normalized to vehicle control, read-out: MonoPs normalized cell count): 0.204%; activity at 0.1 µM ([2]; Homo sapiens, Monocyte, 144 h, dose 100 nM, 6 days, normalized to vehicle control, read-out: MonoPs normalized cell count): 0.162%; activity at 0.5 µM ([2]; Homo sapiens, Monocyte, 144 h, dose 500 nM, 6 days, normalized to vehicle control, read-out: MonoPs normalized cell count): 0.302%; activity at 2.5 µM ([2]; Homo sapiens, Monocyte, 144 h, dose 2500 nM, 6 days, normalized to vehicle control, read-out: MonoPs normalized cell count): 0.319%; Emax ([2]; Homo sapiens, Monocyte, 144 h, parameter from QSP model fitting, read-out: Emax_drug_MonoP): 146%; EmaxCK,MonoP [2, 6]: 0.459 day⁻¹; EC50 (monocytes (monocyte-lin); [7]): 9.03 nM; activity at 0.0002 µM (monocytes (monocyte-lin); dose 0.2 nM, 6 days, normalized to vehicle control, read-out: Mon normalized cell count): 103%; activity at 0.001 µM (monocytes (monocyte-lin); dose 1 nM, 6 days, normalized to vehicle control, read-out: Mon normalized cell count): 106%; activity at 0.005 µM (monocytes (monocyte-lin); dose 5 nM, 6 days, normalized to vehicle control, read-out: Mon normalized cell count): 2.6%; activity at 0.025 µM (monocytes (monocyte-lin); dose 25 nM, 6 days, normalized to vehicle control, read-out: Mon normalized cell count): 1.23%; activity at 0.1 µM (monocytes (monocyte-lin); dose 100 nM, 6 days, normalized to vehicle control, read-out: Mon normalized cell count): 1.06%; activity at 0.5 µM (monocytes (monocyte-lin); dose 500 nM, 6 days, normalized to vehicle control, read-out: Mon normalized cell count): 2.03%; activity at 2.5 µM (monocytes (monocyte-lin); dose 2500 nM, 6 days, normalized to vehicle control, read-out: Mon normalized cell count): 1.39%; Emax (monocytes (monocyte-lin); parameter from QSP model fitting, read-out: Emax_drug_Mono): 19.8%; activity at 0.0002 µM ([3]; dose 0.2 nM, 6 days, normalized to vehicle control, read-out: LymP normalized cell count): 96.4%; activity at 0.001 µM ([3]; dose 1 nM, 6 days, normalized to vehicle control, read-out: LymP normalized cell count): 131%; activity at 0.005 µM ([3]; dose 5 nM, 6 days, normalized to vehicle control, read-out: LymP normalized cell count): 24.3%; activity at 0.025 µM ([3]; dose 25 nM, 6 days, normalized to vehicle control, read-out: LymP normalized cell count): 6.02%; activity at 0.1 µM ([3]; dose 100 nM, 6 days, normalized to vehicle control, read-out: LymP normalized cell count): 2.7%; activity at 0.5 µM ([3]; dose 500 nM, 6 days, normalized to vehicle control, read-out: LymP normalized cell count): 7.71%; activity at 2.5 µM ([3]; dose 2500 nM, 6 days, normalized to vehicle control, read-out: LymP normalized cell count): 6.19%; Emax ([3]; parameter from QSP model fitting, read-out: Emax_drug_LymP): 0.16%; EC50 (B cells (B-lin); [7]): 10.4 nM; activity at 0.0002 µM (B cells (B-lin); dose 0.2 nM, 6 days, normalized to vehicle control, read-out: B-lin normalized cell count): 89%; activity at 0.001 µM (B cells (B-lin); dose 1 nM, 6 days, normalized to vehicle control, read-out: B-lin normalized cell count): 94.8%; activity at 0.005 µM (B cells (B-lin); dose 5 nM, 6 days, normalized to vehicle control, read-out: B-lin normalized cell count): 3.47%; activity at 0.025 µM (B cells (B-lin); dose 25 nM, 6 days, normalized to vehicle control, read-out: B-lin normalized cell count): 0.169%; activity at 0.1 µM (B cells (B-lin); dose 100 nM, 6 days, normalized to vehicle control, read-out: B-lin normalized cell count): 1.5%; activity at 0.5 µM (B cells (B-lin); dose 500 nM, 6 days, normalized to vehicle control, read-out: B-lin normalized cell count): 1.33%; activity at 2.5 µM (B cells (B-lin); dose 2500 nM, 6 days, normalized to vehicle control, read-out: B-lin normalized cell count): 0.24%; Emax (B cells (B-lin); parameter from QSP model fitting, read-out: Emax_drug_B): 102%; viability at 0.0002 µM ([4]; dose 0.2 nM): 100%; viability at 0.001 µM ([4]; dose 1 nM): 108%; viability at 0.005 µM ([4]; dose 5 nM): 4.66%; viability at 0.025 µM ([4]; dose 25 nM): 0.311%; viability at 0.1 µM ([4]; dose 100 nM): 0.197%; viability at 0.5 µM ([4]; dose 500 nM): 0.378%; viability at 2.5 µM ([4]; dose 2500 nM): 0.283%; activity at 0.0002 µM ([5]; dose 0.2 nM): 104%; activity at 0.001 µM ([5]; dose 1 nM): 107%; activity at 0.005 µM ([5]; dose 5 nM): 113%; activity at 0.025 µM ([5]; dose 25 nM): 45.7%; activity at 0.1 µM ([5]; dose 100 nM): 46.1%; activity at 0.5 µM ([5]; dose 500 nM): 41.6%; activity at 2.5 µM ([5]; dose 2500 nM): 48.4%
